Laboratory results from article PMC2909763 (Chemistry & biology, 2009).
“Also recorded” adds a separate entry of the source.

Key:
[1] = system: FXN mRNA in FRDA lymphoblasts; details: FRDA cells in culture; ref Herman et al., 2006; cited from earlier work
HDAC = details: read-out: IC50 as HDAC inhibitor; ref Herman et al., 2006; cited from earlier work
[2] = system: FXN mRNA in primary lymphocytes from FRDA patients; experiment: FXN mRNA by qRT-PCR in primary FRDA patient lymphocytes; format: cell-based, human; details: for up-regulation of FXN mRNA: normalized to GAPDH mRNA, relative to DMSO
[3] = system: FXN mRNA in FRDA lymphoblasts; experiment: FXN mRNA by qRT-PCR in FRDA lymphoblast cell line; format: cell-based, human
[4] = system: FXN mRNA in patient fibroblasts; experiment: FXN mRNA in FRDA patient fibroblasts; format: cell-based, human; details: concentrations up to 10 μM, not shown
Sirt1 = details: read-out: IC50 Sirt1; reported; ref Napper et al., 2005; cited from earlier work
Sirt2 = details: read-out: IC50 Sirt2; reported; ref Napper et al., 2005; cited from earlier work
[5] = system: frataxin protein in FRDA lymphoblasts; experiment: Frataxin protein by western blot in FRDA lymphoblasts; format: cell-based, human; details: 106 or 3 at 10 μM, SAHA at 2 μM, 48 h, normalized to GAPDH
[6] = system: p21^WAF1 mRNA in HEK293 cells; experiment: p21WAF1 mRNA levels in HEK293 cells; format: cell-based; details: data not shown
class I HDACs = details: ref Chou et al., 2008; cited from earlier work
HDAC1 [7] = biological target: T1, HDAC1 (Homo sapiens, UniProt Q13547); experiment: IC50 with recombinant HDAC1; format: biochemical
T1 sequence (Q13547 whole entry): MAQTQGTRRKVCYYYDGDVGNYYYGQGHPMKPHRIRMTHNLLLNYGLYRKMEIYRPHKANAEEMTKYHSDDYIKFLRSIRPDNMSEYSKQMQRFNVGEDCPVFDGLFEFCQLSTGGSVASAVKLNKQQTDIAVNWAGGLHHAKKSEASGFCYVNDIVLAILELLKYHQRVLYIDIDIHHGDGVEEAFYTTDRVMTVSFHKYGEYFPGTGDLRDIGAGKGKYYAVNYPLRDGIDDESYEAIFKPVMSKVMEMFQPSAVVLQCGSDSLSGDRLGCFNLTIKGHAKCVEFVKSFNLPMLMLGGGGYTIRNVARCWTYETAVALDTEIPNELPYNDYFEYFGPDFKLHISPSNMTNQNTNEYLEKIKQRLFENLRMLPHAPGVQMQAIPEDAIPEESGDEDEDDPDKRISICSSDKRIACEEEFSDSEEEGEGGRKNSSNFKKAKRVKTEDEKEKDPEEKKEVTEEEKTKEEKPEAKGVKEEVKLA

HDAC3/NcoR2 = HDAC3/NcoR2 (Homo sapiens, UniProt O15379); experiment: Ki and kinetics from enzyme progression curves, HDAC3; format: biochemical; details: fit of Kobs versus inhibitor concentration
HDAC3/NcoR2, sequence (O15379 whole entry): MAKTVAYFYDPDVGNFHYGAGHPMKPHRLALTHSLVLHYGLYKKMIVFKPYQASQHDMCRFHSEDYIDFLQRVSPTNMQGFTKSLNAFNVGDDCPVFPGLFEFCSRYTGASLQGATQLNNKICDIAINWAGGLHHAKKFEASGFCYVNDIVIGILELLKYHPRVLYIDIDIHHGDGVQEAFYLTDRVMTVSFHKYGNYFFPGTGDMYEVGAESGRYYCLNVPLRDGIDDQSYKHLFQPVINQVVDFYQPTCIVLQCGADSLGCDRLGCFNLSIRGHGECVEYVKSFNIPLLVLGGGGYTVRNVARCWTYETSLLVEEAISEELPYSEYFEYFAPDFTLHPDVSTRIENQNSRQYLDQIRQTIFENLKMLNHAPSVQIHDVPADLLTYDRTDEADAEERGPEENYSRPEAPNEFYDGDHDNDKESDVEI
HDAC3/NcoR2, sequence (Q9Y618 395-489 partner limits assumed): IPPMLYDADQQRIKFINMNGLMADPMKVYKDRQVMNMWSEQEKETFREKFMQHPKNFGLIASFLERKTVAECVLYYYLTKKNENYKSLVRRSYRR

HDAC1 [8] = biological target: T1, HDAC1; experiment: Ki and kinetics from enzyme progression curves, HDAC1; format: biochemical
[9] = system: acetylated histone H3 in FRDA lymphoblast cell line; experiment: Histone H3 acetylation by western blot in FRDA lymphoblasts; format: cell-based, human; details: for hyperacetylation of histone H3 after inhibitor removal: 3 or 106 at 10 μM, SAHA at 2 μM, 24 h, then washed, 0 to 7 h
[10] = system: tubulin acetylation (class II HDAC6) in FRDA lymphoblasts; experiment: Tubulin acetylation by western blot in FRDA lymphoblasts; format: cell-based, human
recombinant HDAC2 = recombinant HDAC2 (Homo sapiens, UniProt Q92769); experiment: Inhibition of recombinant HDAC2; format: biochemical; details: data not shown
recombinant HDAC2, sequence (Q92769 whole entry): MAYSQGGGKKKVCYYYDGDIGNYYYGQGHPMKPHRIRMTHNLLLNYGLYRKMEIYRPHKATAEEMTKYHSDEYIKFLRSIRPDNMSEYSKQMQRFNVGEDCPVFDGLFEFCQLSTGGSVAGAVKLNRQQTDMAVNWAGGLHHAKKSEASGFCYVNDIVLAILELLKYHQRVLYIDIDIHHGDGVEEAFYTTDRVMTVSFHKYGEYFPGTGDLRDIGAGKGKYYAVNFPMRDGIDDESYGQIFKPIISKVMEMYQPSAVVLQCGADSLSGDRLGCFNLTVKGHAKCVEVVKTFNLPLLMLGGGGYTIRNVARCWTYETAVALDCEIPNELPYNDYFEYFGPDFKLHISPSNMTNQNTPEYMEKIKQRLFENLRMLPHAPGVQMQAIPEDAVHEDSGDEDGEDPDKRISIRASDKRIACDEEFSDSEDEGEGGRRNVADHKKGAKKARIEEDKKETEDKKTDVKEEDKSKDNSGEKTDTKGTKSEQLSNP

HDAC7 = biological target: T2, HDAC7 (Homo sapiens, UniProt Q8WUI4); experiment: IC50 with recombinant HDAC7; format: biochemical
T2 sequence (Q8WUI4 1-952): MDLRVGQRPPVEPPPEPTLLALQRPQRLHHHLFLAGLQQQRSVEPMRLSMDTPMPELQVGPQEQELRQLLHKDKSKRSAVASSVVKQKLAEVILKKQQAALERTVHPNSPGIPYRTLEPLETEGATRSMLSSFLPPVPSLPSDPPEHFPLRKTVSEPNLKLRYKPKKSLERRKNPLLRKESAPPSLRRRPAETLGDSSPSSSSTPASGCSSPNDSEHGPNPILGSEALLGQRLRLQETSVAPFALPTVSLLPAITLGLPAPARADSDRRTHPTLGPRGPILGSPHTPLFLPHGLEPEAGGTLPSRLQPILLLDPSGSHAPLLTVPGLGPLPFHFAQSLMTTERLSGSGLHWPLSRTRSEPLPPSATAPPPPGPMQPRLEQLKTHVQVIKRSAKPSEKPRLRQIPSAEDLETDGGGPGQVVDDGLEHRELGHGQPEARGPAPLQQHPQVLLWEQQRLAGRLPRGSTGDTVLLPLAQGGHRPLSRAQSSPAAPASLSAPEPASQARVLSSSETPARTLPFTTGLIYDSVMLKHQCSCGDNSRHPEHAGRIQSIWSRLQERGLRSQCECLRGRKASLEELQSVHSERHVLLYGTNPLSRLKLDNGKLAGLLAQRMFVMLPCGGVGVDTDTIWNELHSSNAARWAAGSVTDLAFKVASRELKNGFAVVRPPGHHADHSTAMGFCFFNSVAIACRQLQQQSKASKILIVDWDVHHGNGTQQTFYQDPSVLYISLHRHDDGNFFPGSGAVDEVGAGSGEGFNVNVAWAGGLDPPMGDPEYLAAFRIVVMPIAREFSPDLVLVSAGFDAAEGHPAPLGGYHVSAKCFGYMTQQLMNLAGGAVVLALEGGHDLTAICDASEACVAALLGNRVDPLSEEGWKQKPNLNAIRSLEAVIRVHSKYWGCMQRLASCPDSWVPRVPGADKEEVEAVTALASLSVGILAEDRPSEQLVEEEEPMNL

class II HDACs = details: read-out: IC50s for class II enzymes; ref Chou et al., 2008; cited from earlier work
recombinant HDAC8 = details: ref Chou et al., 2008; cited from earlier work
[11] = recombinant HDAC1 vs HDAC3/NcoR2

O=C(CCCCCC(=O)Nc1ccccc1)Nc1ccccc1 [5b, N^1-phenyl-N^7-phenylheptanediamide]
activation of FXN gene expression [1]: fails to activate
IC50 (HDAC): ~200 µM

NC(=O)C1CCCc2c1[nH]c1ccc(Cl)cc21 (stereo not shown) [6-chloro-2,3,4,9-tetrahydro-1H-carbazole-1-carboxamide]
effect on FXN mRNA levels ([2]; concentrations up to 10 μM, 48 h): no effect
effect on FXN mRNA levels ([3]; concentrations up to 10 μM, not shown): no effect
effect on FXN mRNA levels [4]: no effect

O=C(CCCCCCC(=O)Nc1ccccc1)NO [SAHA, suberoylanilide hydroxamic acid, reference compound]
effect on frataxin protein levels [5]: decreased
p21^WAF1 mRNA levels [6]: increased
activation of FXN gene expression [1]: neither TSA nor SAHA is an activator

CC(/C=C/C(=O)NO)=C\[C@@H](C)C(=O)c1ccc(N(C)C)cc1 [TSA, trichostatin A, reference compound]
activation of FXN gene expression [1]: neither TSA nor SAHA is an activator
inhibition kinetics with class I HDACs (class I HDACs): fast-on/fast-off

Nc1ccc(-c2ccccc2)cc1NC(=O)CCCCCC(=O)Nc1ccccc1 [compound 3, N^1-(4-aminobiphenyl-3-yl)-N^7-phenylheptanediamide]
preference for HDAC1 over HDAC3 comparing IC50 values (HDAC1 [7]; [11]): ~ 75 fold
inhibition mechanism, HDAC3/NcoR2 (HDAC3/NcoR2): simple slow-on/slow-off mechanism
inhibition mechanism, HDAC1 (HDAC1 [8]; fit of Kobs versus inhibitor concentration): slow-on/slow-off
preference for HDAC1 over HDAC3 from Ki measurements (HDAC1 [8]; [11]): ~ 350 fold
up-regulation of FXN mRNA levels ([2]; 48 h): fails to reproducibly up-regulate
up-regulation of FXN mRNA ([2]; 48 h): ≤ 1.7 fold
hyperacetylation of histone H3 after inhibitor removal [9]: decreased only slightly
HDAC inhibition in FRDA cells (histone acetylation titration) ([9]; increasing concentrations, western blotting): comparably active
tubulin acetylation ([10]; FRDA lymphoblasts): Neither 106 nor 3 caused tubulin acetylation
effect on frataxin protein levels [5]: without significant effect
p21^WAF1 mRNA levels [6]: increased
activity against recombinant HDAC2 (recombinant HDAC2): similarly active

CC(C)(C)OC(=O)Nc1ccc(NC(=O)CCCC(=O)C(F)(F)F)cc1 [compound 4, tert-butyl 4-(6,6,6-trifluoro-5-oxohexanamido)phenylcarbamate]
IC50 (HDAC1 [7]): 30 µM
up-regulation of FXN transcription ([2]; concentrations up to 40 μM): failed to show up-regulation
tubulin acetylation ([10]; 1 μM in culture medium for 24 h): potent inducer
tubulin acetylation ([10]; FRDA lymphoblasts): highly active
effect on levels of FXN mRNA ([3]; concentrations up to 10 μM for 24 h): no positive effect
IC50 (HDAC7): 4 µM
preference for a class II HDAC (HDAC7) over a class I HDAC (HDAC1) (HDAC7; from IC50 values): 7.5 fold

Cc1ccc(NC(=O)CCCCCC(=O)Nc2ccccc2N)cc1 [compound 106]
up-regulation of FXN mRNA levels ([2]; 48 h): highly active
up-regulation of FXN mRNA ([2]; 48 h): 3 – 4 fold
hyperacetylation of histone H3 after inhibitor removal [9]: decreased only slightly
tubulin acetylation ([10]; FRDA lymphoblasts): Neither 106 nor 3 caused tubulin acetylation
effect on frataxin protein levels [5]: positive effect
IC50 (class II HDACs): > 180 µM
activity against HDAC8 (recombinant HDAC8): only weak inhibitory activity; also recorded: only weakly active
inhibition kinetics with class I HDACs (class I HDACs): slow-on/slow-off

CCCC(CCC)C(=O)O [valproic acid]
activation of FXN gene expression [1]: none
